Results as given in PMC6009937, “Comparing hydrazine-derived reactive groups as inhibitors of quinone-dependent amine oxidases” (Journal of Enzyme Inhibition and Medicinal Chemistry, 2017).
Values joined by “and” are separate entries in the source; they are usually repeats but may differ in a detail not shown here. Identical values can stand only once. Like-named read-outs stand apart in the source and are kept apart here.

Key:
[1] = target: T1, Lysyl oxidase (LOX) (Bos taurus, UniProt P33072); assay: LOX activity assay (Amplex UltraRed/HRP fluorescence) after preincubation of enzyme with inhibitor; assay type: biochemical, bovine; conditions: for IC50 / Selectivity factor (LOX IC50 value divided by LSDAO IC50 value): 10-min preincubation; for IC50: 37 °C, read-out: IC50 LOX; for Selectivity factor (LOX IC50 value divided by LSDAO IC50 value): LOX vs LSDAO; for remaining activity at 40 µM: 40 µM inhibitor; for remaining activity at 40 µM / remaining activity at 100 µM / remaining activity at 500 µM / remaining activity at 7 µM / remaining activity at 20 µM: read-out: Average Percent Activity Remaining, LOX; for remaining activity at 100 µM: 100 µM inhibitor; for remaining activity at 500 µM: 500 µM inhibitor; for LOX k2 (range) / KI (inactivation): Kitz-Wilson analysis; for LOX k2 (range): rate constant for irreversible reaction; for KI (inactivation): reversible binding constant, read-out: LOX KI^-1 (range); for remaining activity at 7 µM: 7 µM inhibitor; for remaining activity at 20 µM: 20 µM inhibitor
T1 construct: LOX was isolated from bovine aorta; from tissue; host or cells: bovine aorta
T1 sequence (P33072 170-418): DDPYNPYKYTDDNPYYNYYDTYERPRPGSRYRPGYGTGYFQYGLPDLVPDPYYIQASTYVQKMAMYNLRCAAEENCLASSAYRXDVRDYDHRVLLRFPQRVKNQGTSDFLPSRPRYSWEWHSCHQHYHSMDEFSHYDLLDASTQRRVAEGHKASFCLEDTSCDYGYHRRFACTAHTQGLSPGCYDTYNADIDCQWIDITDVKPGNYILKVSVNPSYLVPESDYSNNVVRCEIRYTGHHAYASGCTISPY
Protocol: LOX was isolated from bovine aorta at 4 °C using slight modifications of previously published procedures. All steps were carried out at in 16 mM phosphate, pH 7.8 (buffer B). After blending the aorta in buffer B containing 400 mM NaCl and 1 mM EDTA to remove soluble contaminants, the enzyme was extracted with buffer B containing 4 M urea and 1 mM EDTA. The crude enzyme extract was filtered, diluted with an equal volume of buffer B to obtain a urea concentration of 2 M, and loaded onto a DEAE column. After washing with buffer B containing 400 mM NaCl, the enzyme was eluted with buffer B containing 400 mM NaCl and 6 M urea. The urea concentration was reduced to 4 M by adding buffer B, and the solution was added to a slurry of ceramic hydroxyapatite in buffer B containing 4 M urea. After stirring, the supernatant was removed by filtration and dialyzed overnight against buffer B. The solution was added to a slurry of ceramic hydroxyapatite in buffer B, washed with small portions of 1 M phosphate and then buffer B, and then eluted with buffer B containing 6 M urea and 500 mM NaCl. After concentration to about 20 mL, the protein was applied to a Sephacryl S-200 gel filtration column preequilibrated with buffer B containing 50 mM NaCl, 1 mM EDTA, and 6 M urea and eluted with the same buffer. Active fractions were concentrated to 1 mL. Total protein concentration for 6 M urea solutions[33] was determined by its absorption at 280 nm using a molar extinction coefficient of 8.39 × 10^4 M^−1 cm ^−1.
(§1) The activity assay is adopted from the method described by Palamakumbura et al.[35]. Enzyme and inhibitor were incubated at 37 °C for the desired inhibition time, diluted into the assay mixture, and analyzed by fluorescence (Agilent Technologies Cary Eclipse Fluorescence Spectrometer, Cary Eclipse Software, 37 °C, λex = 568 and λem = 581 nm). The assay was carried out in boric acid buffer (50 mM, pH 8.2) with 1.2 M urea for LOX or in phosphate buffer (0.1 M, pH = 7.0) for LSDAO. The final reagent concentrations in the assay mixture were 10 mM cadaverine, 10 μM Amplex UltraRed (Life Technologies, Carlsbad, CA), and 1 U/mL horse radish peroxidase (Amresco, Solon, OH).
(§2) The enzyme activity, which is proportional to the rate of increase in fluorescence, was measured for each experiment. Residual activity was calculated by dividing each rate by a maximum rate determined in the absence of inhibitor such that [residual activity] = ([rate with inhibitor] – [baseline rate])/([maximum rate] – [baseline rate]). […] The residual activities from replicate experiments were averaged. For each inhibitor concentration, log([average residual activity]) was plotted against inhibition time. Linear lines of best fit forced through the origin were calculated for each data set using Graphpad Prism 5.0b (La Jolla, CA). For each inhibitor, the slopes of these lines (min^−1) were plotted as –1/slope against 1/[inhibitor concentration] to produce a Kitz–Wilson plot.
(§3) To quantify the selectivity of each inhibitor, we defined a numerical “selectivity factor” as the inhibitor's IC50 value for LOX divided by its IC50 value for LSDAO (Figure 3(C)).

[2] = target: T2, lentil seedling diamine oxidase (LSDAO) (Lens culinaris, UniProt P49252); assay: LSDAO activity assay (Amplex UltraRed/HRP fluorescence) after preincubation of enzyme with inhibitor; assay type: biochemical
T2 construct: Eight-day-old lentil seedlings (Lens esculenta) were blended and extracted; from tissue; host or cells: eight-day-old lentil seedlings (Lens esculenta)
T2 sequence (P49252 19-667): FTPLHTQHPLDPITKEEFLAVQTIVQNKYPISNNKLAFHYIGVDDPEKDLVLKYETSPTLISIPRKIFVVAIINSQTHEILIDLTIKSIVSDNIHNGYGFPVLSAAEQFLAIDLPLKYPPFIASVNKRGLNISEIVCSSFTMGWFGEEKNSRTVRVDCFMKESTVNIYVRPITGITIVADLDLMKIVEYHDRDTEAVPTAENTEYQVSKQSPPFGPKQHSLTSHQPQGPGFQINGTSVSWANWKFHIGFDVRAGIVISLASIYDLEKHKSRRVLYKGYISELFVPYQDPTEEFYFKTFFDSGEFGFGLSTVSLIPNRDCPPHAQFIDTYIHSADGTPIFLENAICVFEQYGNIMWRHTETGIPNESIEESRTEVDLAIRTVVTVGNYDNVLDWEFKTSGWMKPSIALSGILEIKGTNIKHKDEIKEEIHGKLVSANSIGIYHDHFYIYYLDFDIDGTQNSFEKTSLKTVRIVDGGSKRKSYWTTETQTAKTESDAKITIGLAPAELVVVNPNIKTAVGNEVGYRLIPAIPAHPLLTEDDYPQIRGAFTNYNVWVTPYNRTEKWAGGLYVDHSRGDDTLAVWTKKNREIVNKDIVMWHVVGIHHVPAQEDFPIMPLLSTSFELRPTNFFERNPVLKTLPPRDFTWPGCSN
Protocol: The LSDAO extraction process was carried out at 4 °C according to the method of Floris et al.[30] with slight modifications. Eight-day-old lentil seedlings (Lens esculenta) were blended and extracted with phosphate buffer (5 mM, pH 6.0, buffer A). Ammonium sulfate (230 g/L, 40% saturation) was used to precipitate contaminants, and then additional ammonium sulfate (125 g/L, 60% saturation) was used to precipitate the LSDAO. The crude precipitate was redissolved, dialyzed against buffer A, applied to a DEAE column, and eluted with buffer A. Active fractions were adjusted to pH 6.5, applied to a CM resin column, and eluted with 5 mM phosphate buffer, pH 6.5. Active fractions were concentrated and the buffer was changed to 10 mM phosphate, pH 7.0 before the protein was applied to a Sephacryl S-300 column and eluted with the same buffer. The concentration of the LSDAO dimer was determined from its absorption at 278 nm in 0.1 M phosphate buffer[31] using a molar extinction coefficient of 2.45 × 10^5 M^−1 cm^−1.
as §1, §2, §3
From the slopes and y-intercepts of these lines, the kinetic parameters KI (the reversible binding constant) and k2 (the rate constant for irreversible reaction) (Figure 5(A)) can be calculated.

[3] = tested on: LOX; design: method as in PMID 2571459; conditions: inhibition time not specified; read-out: IC50 LOX in vitro; cited from earlier work
[4] = tested on: rat lysyl oxidase; design: method as in PMID 19524603; conditions: cited from earlier work
[5] = 4 min, read-out: Average Percent Activity Remaining, LSDAO
[6] = 10 min, read-out: Average Percent Activity Remaining, LSDAO
[7] = Kitz-Wilson analysis, rate constant for irreversible reaction

CCCCNC(=O)NN [compound 5]
IC50 [1]: 100 µM | Selectivity factor (LOX IC50 value divided by LSDAO IC50 value) [1]: 25 | remaining activity at 40 µM ([1]; 4 min): 93% | remaining activity at 100 µM ([1]; 4 min): 76% | remaining activity at 500 µM ([1]; 4 min): 35% | remaining activity at 40 µM ([1]; 10 min): 78% | remaining activity at 100 µM ([1]; 10 min): 52% | remaining activity at 500 µM ([1]; 10 min): 6% | LOX k2 (range) [1]: > 0.50 min⁻¹ | KI (inactivation) [1]: > 1000 µM | IC50 ([2]; 10-min preincubation, 37 °C; read-out: IC50 LSDAO): 4 µM | remaining activity at 1 µM [2, 5]: 89% | remaining activity at 2 µM [2, 5]: 78% | remaining activity at 4 µM [2, 5]: 69% | remaining activity at 20 µM [2, 5]: 41% | remaining activity at 100 µM [2, 5]: 1% | remaining activity at 1 µM [2, 6]: 84% | remaining activity at 2 µM [2, 6]: 71% | remaining activity at 4 µM [2, 6]: 50% | remaining activity at 20 µM [2, 6]: 7% | LSDAO k2 (range) [2, 7]: 0.91 (0.50–5.0) min^-1 and 0.91 min^-1 | KI (inactivation) ([2]; Kitz-Wilson analysis, reversible binding constant; read-out: LSDAO KI^-1 (range)): 112 µM

NNC(N)=O [semicarbazide]
IC50 [3]: 30 µM | Inhibition of lysyl oxidase in vivo compared to BAPN [4]: nearly as effective as BAPN

CCCCCCCNN [compound 4]
IC50 [1]: 40 µM | Selectivity factor (LOX IC50 value divided by LSDAO IC50 value) [1]: 1300 | remaining activity at 7 µM ([1]; 4 min): 89% | remaining activity at 20 µM ([1]; 4 min): 82% | remaining activity at 100 µM ([1]; 4 min): 59% | remaining activity at 7 µM ([1]; 10 min): 83% | remaining activity at 20 µM ([1]; 10 min): 63% | remaining activity at 100 µM ([1]; 10 min): 30% | LOX k2 (range) [1]: 0.079 (0.073–0.087) min^-1 and 0.07–0.09 min^-1 and 0.079 min^-1 | KI (inactivation) [1]: 57 µM | IC50 [2]: 0.03 µM | remaining activity at 0.03 µM [2, 5]: 81% | remaining activity at 0.08 µM [2, 5]: 60% | remaining activity at 0.1 µM [2, 5]: 43% | remaining activity at 0.2 µM [2, 5]: 22% | remaining activity at 0.5 µM [2, 5]: 1% | remaining activity at 1 µM [2, 5]: 1% | remaining activity at 0.03 µM [2, 6]: 45% | remaining activity at 0.08 µM [2, 6]: 15% | remaining activity at 0.1 µM [2, 6]: 7% | remaining activity at 0.2 µM [2, 6]: 2% | LSDAO k2 (range) [2, 7]: 1.0 (0.75–1.6) min^-1 and 1.0 min^-1 | KI (inactivation) ([2]; read-out: LSDAO KI^-1 (range); Kitz-Wilson analysis, reversible binding constant): 0.9 µM
